Experimental data: patent US20070027190A1, “Antibacterial fab i inhibitors” (priority 2003, published 2007)
≈ marks a conversion by molar mass, not a printed value. Where two headings read alike, the source gives them in different places.

How the values were obtained:
[1] = test system: methicillin resistant Staphyloccocus aureus (MRSA, strain ATCC 700699); assay: MIC against methicillin resistant S. aureus (NCCLS dilution); format: cell-based; conditions: Staphylococcus aureus, serial two-fold dilutions, 96-well
Protocol: The sensitivity of methicillin resistant Staphyloccocus aureus (MRSA, strain ATCC 700699, American Type Culture Collection, Manassas, Va.) to the disclosed fabI inhibitors was followed by measuring the minimal inhibitory concentration (MIC) at varying inhibitor levels. This was performed according to NCCLS (National Center for Clinical Laboratory Standards) recommendations (NCCLS, 1997, METHODS FOR DILUTION ANTIMICROBIAL SUSCEPTIBILITY TESTS FOR BACTERIA THAT GROW AEROBICALLY, 4th ed.; approved standard. NCCLS document M7-A4. NCCLS, Wayne, Pa.), in 100 μl volume in 96-well format, with serial two-fold dilutions of drug concentration.

E. coli fabI = biological target: T1, E. coli fabI (Escherichia coli, UniProt P0AEK4); assay: fabI kinetic assay (NADH absorption at 340 nm, crotonoyl-CoA substrate); format: biochemical
T1 construct: made in house; host or cells: E. coli BL21(DE3)
Protocol: In order to perform more detailed kinetic assays on the disclosed compounds, additional purifed fabI was needed. The E. coli fabI gene was cloned into the pET30a expression vector (Novagen, Inc., Madison, Wis.) and expressed in E. coli BL21(DE3) cells. The purification procedure utilized chromatography with Q-sepharose, blue resin, and HA resin as follows.
Each cell pellet was suspended in a 4 fold-volume of lysis buffer (50 mM KH2PO4 pH 8.0, 100 mM NaCl, 2 mM ethylene glycol tetra-acetic acid (EGTA), and 10% glycerol). Cells were broken by passage through a Microfludics cell disrupter 4 times, and the cell lysate was centrifuged at 30,000×g for 20 minutes. The supernatant was applied to a Q-sepharose column pre-equilibrated in a buffer composed of 10 mM Tris-HCl pH 8.0, 0.1 mM EGTA, 1 mM phenylmethylsulfonylfluoride (PMSF), 100 mM NaCl, 10% glycerol, 0.1% β-mercaptoethanol, and 0.02% Brij 35. fabI was eluted with a NaCl gradient (0.1-1M) in the equilibration buffer. The major peak fractions were pooled and concentrated, then dialyzed overnight at 4° C. in 2 L of dialysis buffer (10 mM Tris-HCl pH 7.5, 0.1 mM EGTA, 0.1 mM PMSF, 10% glycerol, 0.1% β-mercaptoethanol, and 0.02% Brij 35). The dialyzed solution was centrifuged at 3,000×g for 20 minutes, and the supernatant was loaded on a blue resin column pre-equilibrated in a buffer composed of 10 mM Tris-HCl pH 7.5, 0.1 mM EGTA, 1 mM PMSF, 50 mM NaCl, 10% glycerol, 0.1% β-mercaptoethanol, and 0.02% Brij 35. fabI was eluted with the equilibration buffer containing NaCl (gradient 50˜1000 mM). The major peak fractions were pooled and dialyzed overnight at 4° C. in 2 L of the equilibration buffer as described above. Then the dialyzed solution was centrifuged at 3,000×g for 20 minutes, and the supernatant was further purified on a hydroxyapatite column pre-equilibrated in a buffer consisting of 20 mM KH2PO4 pH 8.0, 0.1 mM EGTA, 0.1 mM PMSF, 10% glycerol, 0.1% β-mercaptoethanol, and 0.02% Brij 35. fabI was eluted with a gradient of KH2PO4 up to 500 mM. The peak fractions were pooled and dialyzed in storage buffer (10 mM MOPS pH7.0, 150 mM NaCl, 0.1 mM EGTA, 50% glycerol, 0.02% Brij 35), then stored at −20° C.
The kinetic assay was used to confirm the activity of compounds identified by the single-point assay and screen and to measure the IC50 of compounds which inhibit fabI. It was performed in a 96 well microtiter dish. The final concentrations of each component in each 50 μl reaction are as follows—sodium phosphate pH 7.5, 100 mM; NADH, 200 uM; dithiothreitol (DTT), 1 mM; fabI, 3 ug/ml; crotonoyl-CoA, 0.8 mM.
A 2 ul volume of each compound to be tested was loaded into each well, followed by 30 ul Buffer A (sodium phosphate pH7.5, 100 mM; DTT, 1 mM; fabI, 5 ug/ml, obtained as described below). For IC50 measurements, the compound was tested in serial dilution. The reaction was initiated by adding 20 ul Buffer B (sodium phosphate pH7.5, 100 mM; NADH, 500 uM; DTT, 1 mM; and the substrate, crotonoyl-CoA, 2 mM). The reaction was monitored for 5.5 minutes on a spectrometer by measuring absorption at 340 nm. The rate of reduction of NADH in each reaction well was collected and the percentage inhibition was calculated by using SOFTmax® PRO software (Molecular Devices, Sunnyvale, Calif.). The percentage of inhibition of each compound was calculated according to following formula: Percentage Inhibition=100*(rate in the presence of compound-rate of negative control)/(rate of positive control-rate of negative control)
The negative control was the reaction of fabI in the presence of 2% DMSO but no inhibitory compounds, and the positive control was the mixture of the all reaction components excluding fabI.

[2] = test system: strain of Staphylococcus aureus that under-expresses a fabI gene under control of a regulated promoter; assay: MIC in IPTG-regulated fabI under-expressing S. aureus strain; format: cell-based
Description: In general, a bacterial strain which is under-producing the target of interest will be more sensitive to test compounds than a wild-type strain if the compound is acting via inhibition of that target. Accordingly, a strain of Staphylococcus aureus that under-expresses a fabI gene under control of a regulated promoter was constructed.
First, the endogenous S. aureus fabI gene was replaced with a drug-resistance marker (erythromycin-resistance, erm^r) in a two-step allele-replacement procedure (see F. Fan et al., Plasmid, 2001, 46: 71-75). About 1 Kb of DNA sequence flanking each side of the S. aureus fabI gene (SwissProt Q9RMI3; M. Kuroda et al., Lancet 2001, 357:1225-1240) was PCR-amplified from genomic DNA, ligated to an erythromycin-resistance cassette by cross-over PCR (A. J. Link et al., J. Bacteriol., 1997, 179: 6228-6237), and cloned into an allele-replacement suicide vector carrying a kanamycin-resistance marker (kan^r) and the sacB gene encoding levansucrase. This allele-replacement plasmid was introduced by electroporation into an S. aureus host strain carrying the E. coli lactose operon repressor (lacI) and a lac-promoter driving T7 RNA polymerase production from the chromosome. Selection for kan^r yielded cells containing the entire plasmid by means of a single cross-over recombination. […]

[3] = test system: fabI (acetate incorporation into fatty acids) in S. aureus strain ATCC 700699; assay: 14C acetate incorporation into fatty acids in S. aureus; format: cell-based; conditions: 0.25x-2x MIC; 0-30 min at 37° C.; FIG. 1
Protocol: Radioactive (14C) acetic acid was added to 0.4 uCi/ml. After incubation at 37° C. for 0, 5, 10, 15, and 30 minutes, samples were taken, and cells were added to ice cold 10% trichloroacetic acid (TCA) for 30 min. Next, cells were filtered (Millipore MultiScreen-FC filters), washed 2× with 200 ul and 1× with 100 ul cold 10% TCA followed by 2× with 200 ul and 1× with 100 ul cold water. The filters were added to 5 ml scintillation fluid and counts per minute were measured in a scintillation counter. The % inhibition of acetate incorporation into fatty acids was determined by comparison to a control consisting of cells not treated with inhibitor.

T1 sequence (P0AEK4 whole entry): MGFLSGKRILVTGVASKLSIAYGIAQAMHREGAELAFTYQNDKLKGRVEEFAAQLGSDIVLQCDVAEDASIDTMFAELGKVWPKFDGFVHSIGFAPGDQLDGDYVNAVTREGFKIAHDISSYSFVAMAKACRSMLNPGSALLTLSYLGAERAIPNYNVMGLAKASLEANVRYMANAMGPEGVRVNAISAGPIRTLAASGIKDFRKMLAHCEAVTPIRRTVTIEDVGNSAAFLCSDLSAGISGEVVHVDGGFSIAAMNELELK

In the case of `N#Cc1c(-c2cccs2)cc(-c2cccs2)nc1SCc1cccc(C(=O)O)c1` [G], the MIC [1] is reported as 1.5 µg/mL (≈ 3.45 µM) and the IC50 (E. coli fabI) is reported as 6 µM.
With `CC(C)NC(=O)CSc1nc(-c2cccs2)cc(-c2ccc(Cl)cc2)c1C#N` [N] the MIC [1] was greater than 64 µg/mL and the IC50 (E. coli fabI) was 46 µM.
With `N#Cc1c(-c2cccs2)cc(-c2cccs2)nc1SCc1ccc(C(=O)O)cc1` [Compound A] the MIC [1] was 2 µg/mL (≈ 4.6 µM), the MIC ([2]; read-out: minimum inhibitory concentration (MIC), fabI regulated by IPTG, before the inducer (IPTG) level was reduced) was 8 µg/mL and the MIC ([2]; read-out: minimum inhibitory concentration (MIC), fabI regulated by IPTG, inducer (IPTG) level reduced) was 4 µg/mL. The “inhibition of acetate incorporation into fatty acids (activity of fabI)” value [3] was “marked inhibition” and the IC50 (E. coli fabI) was 4 µM.
Molecule `N#Cc1c(-c2ccc(Cl)cc2)cc(-c2cccs2)nc1SCC(N)=O` [Q] has an MIC [1] greater than 64 µg/mL and an IC50 (E. coli fabI) of 33 µM.
`COc1ccc(-c2cc(-c3ccco3)c(C#N)c(SCc3ccc(C(=O)O)cc3)n2)cc1` [I] gave an MIC [1] of 8 µg/mL (≈ 18.1 µM) and an IC50 (E. coli fabI) of 25 µM.
For `N#Cc1c(-c2cccs2)cc(-c2cccs2)nc1SCCc1ccc(C(=O)O)cc1` [E], the MIC [1] was 0.75 µg/mL (≈ 1.67 µM) and the IC50 (E. coli fabI) was 3 µM.
`CC(Sc1nc(-c2cccs2)cc(-c2cccs2)c1C#N)c1ccc(C(=O)O)cc1` (centres unmarked) [F] showed an MIC [1] of 0.75 µg/mL (≈ 1.67 µM) and an IC50 (E. coli fabI) of 3 µM.
Molecule `N#Cc1c(-c2cccs2)cc(-c2cccs2)nc1SC(C(=O)O)c1ccccc1` (centres unmarked) [Compound C] has an MIC [1] of 32 µg/mL (≈ 73.6 µM) and an IC50 (E. coli fabI) of 12.3 µM.
With `N#Cc1c(-c2cccs2)cc(-c2cccs2)nc1SCc1ccc(CC(=O)O)cc1` [H] the MIC [1] was 4 µg/mL (≈ 8.92 µM) and the IC50 (E. coli fabI) was 25 µM.
`N#Cc1c(-c2cccs2)cc(-c2cccs2)nc1SCCC(=O)O` [P] gave an IC50 (E. coli fabI; purified E. coli fabI 3 ug/ml, NADH 200 uM, crotonoyl-CoA 0.8 mM, pH 7.5, read-out: IC50) of 87 µM.
Molecule `CC(C)NC(=O)CSc1nc(-c2cccs2)cc(-c2ccc(F)cc2)c1C#N` [B] has an MIC [1] greater than 64 µg/mL and an IC50 (E. coli fabI) of 12 µM.
Work on `COc1ccc(NC(=O)CSc2nc(-c3cccs3)cc(-c3ccc(F)cc3)c2C#N)cc1OC` [D] yielded an MIC [1] greater than 64 µg/mL and an IC50 (E. coli fabI) of 9.2 µM.
